Laboratory results reported in the NIST ThermoML archive (doi:10.1021/acs.jced.7b00221).

Assay: xn = mol fraction of the nth substance listed
Conditions: 100 kPa, Liquid, Cone and plate viscometry

CC(=O)[O-].CCCCCCCCCCCCCC[P+](CCCCCC)(CCCCCC)CCCCCC [trihexyl(tetradecyl)phosphonium acetate] + CCCCCC[n+]1ccn(C)c1.O=S(=O)([N-]S(=O)(=O)C(F)(F)F)C(F)(F)F
viscosity [mPa·s]
Conditions | 278.15 K | 283.15 K | 288.15 K | 293.15 K | 298.15 K | 303.15 K | 308.15 K | 313.15 K | 318.15 K | 323.15 K
x1 = 0.101 | 353 | 251 | 182 | 136 | 105 | 82 | 66 | 53 | – | –
x1 = 0.199 | 579 | 404 | 286 | 209 | 156 | 120 | 94 | 75 | 61 | –
x1 = 0.3 | 946 | 644 | 447 | 319 | 235 | 177 | 136 | 107 | 85 | 70
x1 = 0.4 | 1403 | 939 | 640 | 449 | 324 | 239 | 181 | 140 | 110 | 88
x1 = 0.499 | 2057 | 1345 | 901 | 621 | 440 | 320 | 238 | 181 | 141 | 112
x1 = 0.6 | 2588 | 1669 | 1100 | 746 | 523 | 376 | 277 | 207 | 159 | 124
x1 = 0.699 | 2721 | 1763 | 1160 | 785 | 530 | 381 | 279 | 208 | 159 | 125
x1 = 0.799 | 2877 | 1850 | 1219 | 827 | 578 | 414 | 304 | 228 | 175 | 137
x1 = 0.899 | 2415 | 1575 | 1047 | 717 | 505 | 366 | 271 | 204 | 158 | 123
